Measurements from patent US10179779B2, “Polymorph forms” (RaQualia Pharma Inc., priority 2012, dated 2019).

Legend:
Format in all cases: physicochemical
[1] = Hygroscopicity study by dynamic vapor sorption (DVS) analysis; conditions: for weight gain %: 25° C.; for weight gain % / water absorbed: DVS; for water absorbed: under 95% RH at 25° C.
Description: Hygroscopicity study is performed using Surface Measurement Systems DVS-1. The sample is placed on a microbalance in the instrument and the weight change during the sorption/desorption cycle at 25° C. is monitored. One of the sorption/desorption programs consists of a sorption scan from 0 to 95% relative humidity (RH) and a desorption scan from 95 to 10% RH. The other consists of a sorption scan from 40 to 95% RH and desorption scan from 95 to 0% RH, followed by a second sorption scan from 0 to 40% RH. Both programs are carried out at 5% RH increments and the sample is allowed to equilibrate for 360 minutes or until equilibration had been attained at each step. At the end of the DVS experiment the sample is measured by PXRD.
In the hygroscopicity study by dynamic vapor sorption (DVS) analysis, both Polymorph Form III and Polymorph Form V absorb less than 1.2 wt % under 95% relative humidity (RH) at 25° C. On the other hand, the white solid disclosed in the prior art WO2006/090224 and Polymorph Form I absorb 15 wt % or 14 wt % of water under 95% RH at 25° C.

[2] = Solid-state stability study (constant temperature/humidity chamber; HPLC, PXRD); conditions: for purity after storage: 40° C./75% RH for 6 months (rounded)
Description: HPLC data are obtained by Waters Alliance 2695 HPLC system with 2996 PDA detector using the following conditions; • Column: Inertsil ODS-3 (3 micrometers, 4.6×150 mm), • Eluent: acetonitrile/10 mM ammonium acetate=32:68, • Detection: UV at 215 nm, • Flow rate: 1 mL/min, and • Column temperature: 40° C.
Solid-state stability study is performed using Nagano Science Constant temperature/humidity control chamber LH-20-11 M, LH-21-11 M, LTL-200D3CJ-14 or LTX-01. […] The crystalline form, thermal behavior, purity and/or weight change of the resultant sample after the exposure or irradiation are evaluated by PXRD, TG/DTA or DSC, HPLC, microbalance, respectively.

[3] = Thermal transformation of crystal form (variable-temperature PXRD); conditions: for temperature at which transformation to another polymorph form begins: heating, Form I to Form II, Form III to Form IV
Description: The PXRD analyses are performed using a Rigaku RINT-TTR X-ray powder diffractometer using Cu-Kalpha radiation. The samples can also be measured under the high/low temperature condition by using the attachment of the variant-temperature sample holder. The instrument is equipped with a fine focus X-ray tube. The tube voltage and amperage are set to 50 kV and 300 mA respectively. The divergence and scattering slits are set at 0.5° and the receiving slit is set at 0.15 mm. Diffracted radiation is detected by a NaI scintillation detector. A theta-two theta continuous scan at 4°/min (step size 0.02°) from 3 to 40(°) 2-theta is used. A silicon standard is analyzed to check the machine alignment. Data are collected and analyzed using-Rigaku X-ray system. Samples are prepared for analysis by placing them in an aluminum sample holder that is horizontally rotated at 60 rpm during data acquisition.
4-{[4-({[4-(2,2,2-Trifluoroethoxy)-1,2-benzisoxazol-3-yl]oxy}methyl)piperidin-1-yl]methyl}-tetrahydro-2H-pyran-4-carboxylic acid Polymorph Form I (5 mg) is placed on the temperature-variable sample holder of PXRD, and the temperature of the sample holder is raised to 120° C. and kept for 10 min., then cooled down to room temperature without nitrogen flow to the sample holder to afford Polymorph Form II of 4-{[4-({[4-(2,2,2-trifluoroethoxy)-1,2-benzisoxazol-3-yl]oxy}methyl)piperidin-1-yl]methyl}-tetrahydro-2H-pyran-4-carboxylic acid. Conversion to the Polymorph Form II is confirmed by in situ monitoring of PXRD spectrum.
4-{[4-({[4-(2,2,2-Trifluoroethoxy)-1,2-benzisoxazol-3-yl]oxy}methyl)piperidin-1-yl]methyl}-tetrahydro-2H-pyran-4-carboxylic acid Polymorph Form III begins to transform to Polymorph Form IV at around 90° C. Conversion to the Polymorph Form IV is confirmed by in situ monitoring of PXRD spectrum (variable-temperature PXRD measurement).

[4] = 25° C./60% RH, 40° C./75% RH and/or Xenon lamp
[5] = 40° C./75% RH for 1 month, HPLC
[6] = 40° C./75% RH for 6 months, HPLC
[7] = storage at 40° C./75% RH for 1 month, HPLC
[8] = storage at 40° C./75% RH for 6 months, HPLC

weight gain % ([1]; 85% RH) [%] | weight gain % ([1]; 90% RH) [%] | weight gain % ([1]; 95% RH) [%] | water absorbed [1] [wt %] | solid-state stability, comparison in words [2] | solid-state stability (in words) [2, 4] | Purity (Area %) Main peak [2, 5] [Area %] | purity after storage [2] [%] | Purity (Area %) Main peak [2, 6] [Area %] | time to transformation to Polymorph Form III ([2]; 70° C./75% RH) [days] | Assay Remaining % [2, 7] [%] | Assay Remaining % [2, 8] [%] | temperature at which transformation to another polymorph form begins [3] | hygroscopicity in comparison with the white solid of WO2006/090224 [1] | solid-state stability (in words) ([2]; 70° C./75% RH) | remaining ([2]; 70° C./75% RH, after 3 weeks, HPLC) [%] | temperature up to which the form is stable [3] | Structure (SMILES) | change of crystal form on storage ([2]; 25° C./60% RH)
0.065 | 0.089 | 14 | 14 | more stable than the white solid | stable | 99.4 | 96 | 95.6 | ≤ 1 | 98 | 87 | around 110 °C | – | – | – | – | O=C(O)C1(CN2CCC(COc3noc4cccc(OCC(F)(F)F)c34)CC2)CCOCC1 [Polymorph Form I, 4-{[4-({[4-(2,2,2-trifluoroethoxy)-1,2-benzisoxazol-3-yl]oxy}methyl)piperidin-1-yl]methyl}-tetrahydro-2H-pyran-4-carboxylic acid] | gradually transforms to Polymorph Form III
– | – | – | – | more stable than the white solid | – | – | – | – | – | – | – | – | – | – | – | – | O=C(O)C1(CN2CCC(COc3noc4cccc(OCC(F)(F)F)c34)CC2)CCOCC1 [Polymorph Form II, 4-{[4-({[4-(2,2,2-trifluoroethoxy)-1,2-benzisoxazol-3-yl]oxy}methyl)piperidin-1-yl]methyl}-tetrahydro-2H-pyran-4-carboxylic acid] | –
– | – | – | – | – | – | – | – | – | – | – | – | – | – | – | – | up to 115 °C | O=C(O)C1(CN2CCC(COc3noc4cccc(OCC(F)(F)F)c34)CC2)CCOCC1 [Polymorph Form IV, 4-{[4-({[4-(2,2,2-trifluoroethoxy)-1,2-benzisoxazol-3-yl]oxy}methyl)piperidin-1-yl]methyl}-tetrahydro-2H-pyran-4-carboxylic acid] | –

More lines, now with the values behind:

Structure (SMILES) | weight gain % ([1]; 85% RH) [%] | weight gain % ([1]; 90% RH) [%] | weight gain % ([1]; 95% RH) [%] | water absorbed [1] [wt %] | solid-state stability, comparison in words [2] | solid-state stability (in words) [2, 4] | Purity (Area %) Main peak [2, 5] [Area %] | purity after storage [2] [%] | Purity (Area %) Main peak [2, 6] [Area %] | time to transformation to Polymorph Form III ([2]; 70° C./75% RH) [days] | Assay Remaining % [2, 7] [%] | Assay Remaining % [2, 8] [%] | temperature at which transformation to another polymorph form begins [3] | hygroscopicity in comparison with the white solid of WO2006/090224 [1] | solid-state stability (in words) ([2]; 70° C./75% RH) | remaining ([2]; 70° C./75% RH, after 3 weeks, HPLC) [%] | temperature up to which the form is stable [3] | change of crystal form on storage ([2]; 25° C./60% RH)
O=C(O)C1(CN2CCC(COc3noc4cccc(OCC(F)(F)F)c34)CC2)CCOCC1 [Polymorph Form III, 4-{[4-({[4-(2,2,2-trifluoroethoxy)-1,2-benzisoxazol-3-yl]oxy}methyl)piperidin-1-yl]methyl}-tetrahydro-2H-pyran-4-carboxylic acid] | 0.48 | 0.53 | 0.60 | – | more excellent solid-state stability than Polymorph Form I | stable | 99.7 | 99 | 99.1 | – | 99 | 97 | around 90 °C | lower hygroscopicity | chemically and physically stable | 100 | – | –
O=C(O)C1(CN2CCC(COc3noc4cccc(OCC(F)(F)F)c34)CC2)CCOCC1 [Polymorph Form V, 4-{[4-({[4-(2,2,2-trifluoroethoxy)-1,2-benzisoxazol-3-yl]oxy}methyl)piperidin-1-yl]methyl}-tetrahydro-2H-pyran-4-carboxylic acid] | 0.74 | 0.85 | 1.1 | – | – | – | – | – | – | – | – | – | – | lower hygroscopicity | – | – | – | –
O=C(O)C1(CN2CCC(COc3noc4cccc(OCC(F)(F)F)c34)CC2)CCOCC1 [White solid disclosed in the prior art WO2006/090224] [4-{[4-({[4-(2,2,2-trifluoroethoxy)-1,2-benzisoxazol-3-yl]oxy}methyl)piperidin-1-yl]methyl}-tetrahydro-2H-pyran-4-carboxylic acid, reference compound] | 0.99 | 5.3 | 15 | 15 | – | – | – | – | – | – | – | – | – | – | – | – | – | –
